Assay in all cases: KinomeScan kinase panel, single concentration 10 µM
Common to all, as to type: binding

Assay [1] addresses T1, KinomeScan kinase panel (Homo sapiens, UniProt O14936).
T1 construct: purchased DiscoveRx (KinomeScan)
The note with it: CASK, 10 µM; read-out: score (%).

Assay [2] concerns the target T2, KinomeScan kinase panel (Homo sapiens, UniProt Q00532).
T2 construct: purchased DiscoveRx (KinomeScan)
The settings on record: CDKL1, 10 µM; read-out: score (%).

For assay [3], the target named is T3, KinomeScan kinase panel (Homo sapiens, UniProt Q9BQI3).
T3 construct: purchased DiscoveRx (KinomeScan)
The note with it: EIF2AK1, 10 µM; read-out: score (%).

Assay [4] deals with T4, KinomeScan kinase panel (Homo sapiens, UniProt Q9NWZ3).
T4 construct: purchased DiscoveRx (KinomeScan)
The settings on record: IRAK4, 10 µM.

The target in assay [5] is T5, KinomeScan kinase panel (Homo sapiens, UniProt Q9UL54).
T5 construct: purchased DiscoveRx (KinomeScan)
The note with it: kinase TAOK2; 10 µM; read-out: score (%).

In assay [6] the target is T6, KinomeScan kinase panel (Plasmodium falciparum, UniProt P61075).
T6 construct: purchased DiscoveRx (KinomeScan)
The settings on record: PFPK5(P.falciparum), 10 µM; read-out: score (%).

Bounds are passed on as bounds.

T1 sequence (O14936 whole entry): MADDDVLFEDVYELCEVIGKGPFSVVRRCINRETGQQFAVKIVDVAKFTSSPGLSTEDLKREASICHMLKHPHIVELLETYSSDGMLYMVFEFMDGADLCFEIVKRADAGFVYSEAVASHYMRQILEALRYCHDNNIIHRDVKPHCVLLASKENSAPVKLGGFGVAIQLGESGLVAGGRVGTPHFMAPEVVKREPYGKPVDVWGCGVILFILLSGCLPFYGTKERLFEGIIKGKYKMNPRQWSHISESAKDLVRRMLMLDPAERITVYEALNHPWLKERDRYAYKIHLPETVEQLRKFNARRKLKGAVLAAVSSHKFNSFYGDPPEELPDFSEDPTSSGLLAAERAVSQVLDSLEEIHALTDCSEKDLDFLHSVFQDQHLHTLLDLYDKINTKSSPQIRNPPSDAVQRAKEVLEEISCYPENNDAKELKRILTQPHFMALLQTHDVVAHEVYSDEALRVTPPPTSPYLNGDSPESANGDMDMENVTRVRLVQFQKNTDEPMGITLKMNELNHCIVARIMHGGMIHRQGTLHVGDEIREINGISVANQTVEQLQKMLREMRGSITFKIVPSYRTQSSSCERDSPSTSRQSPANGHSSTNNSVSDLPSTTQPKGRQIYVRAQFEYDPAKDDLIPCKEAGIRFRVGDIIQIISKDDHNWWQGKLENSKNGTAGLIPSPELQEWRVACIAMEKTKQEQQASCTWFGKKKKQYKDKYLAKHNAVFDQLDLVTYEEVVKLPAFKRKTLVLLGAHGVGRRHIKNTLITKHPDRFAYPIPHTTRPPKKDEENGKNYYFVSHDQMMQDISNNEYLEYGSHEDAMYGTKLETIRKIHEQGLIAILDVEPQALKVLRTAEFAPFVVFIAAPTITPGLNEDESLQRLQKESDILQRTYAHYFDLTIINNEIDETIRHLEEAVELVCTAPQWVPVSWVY
T5 sequence (Q9UL54 whole entry): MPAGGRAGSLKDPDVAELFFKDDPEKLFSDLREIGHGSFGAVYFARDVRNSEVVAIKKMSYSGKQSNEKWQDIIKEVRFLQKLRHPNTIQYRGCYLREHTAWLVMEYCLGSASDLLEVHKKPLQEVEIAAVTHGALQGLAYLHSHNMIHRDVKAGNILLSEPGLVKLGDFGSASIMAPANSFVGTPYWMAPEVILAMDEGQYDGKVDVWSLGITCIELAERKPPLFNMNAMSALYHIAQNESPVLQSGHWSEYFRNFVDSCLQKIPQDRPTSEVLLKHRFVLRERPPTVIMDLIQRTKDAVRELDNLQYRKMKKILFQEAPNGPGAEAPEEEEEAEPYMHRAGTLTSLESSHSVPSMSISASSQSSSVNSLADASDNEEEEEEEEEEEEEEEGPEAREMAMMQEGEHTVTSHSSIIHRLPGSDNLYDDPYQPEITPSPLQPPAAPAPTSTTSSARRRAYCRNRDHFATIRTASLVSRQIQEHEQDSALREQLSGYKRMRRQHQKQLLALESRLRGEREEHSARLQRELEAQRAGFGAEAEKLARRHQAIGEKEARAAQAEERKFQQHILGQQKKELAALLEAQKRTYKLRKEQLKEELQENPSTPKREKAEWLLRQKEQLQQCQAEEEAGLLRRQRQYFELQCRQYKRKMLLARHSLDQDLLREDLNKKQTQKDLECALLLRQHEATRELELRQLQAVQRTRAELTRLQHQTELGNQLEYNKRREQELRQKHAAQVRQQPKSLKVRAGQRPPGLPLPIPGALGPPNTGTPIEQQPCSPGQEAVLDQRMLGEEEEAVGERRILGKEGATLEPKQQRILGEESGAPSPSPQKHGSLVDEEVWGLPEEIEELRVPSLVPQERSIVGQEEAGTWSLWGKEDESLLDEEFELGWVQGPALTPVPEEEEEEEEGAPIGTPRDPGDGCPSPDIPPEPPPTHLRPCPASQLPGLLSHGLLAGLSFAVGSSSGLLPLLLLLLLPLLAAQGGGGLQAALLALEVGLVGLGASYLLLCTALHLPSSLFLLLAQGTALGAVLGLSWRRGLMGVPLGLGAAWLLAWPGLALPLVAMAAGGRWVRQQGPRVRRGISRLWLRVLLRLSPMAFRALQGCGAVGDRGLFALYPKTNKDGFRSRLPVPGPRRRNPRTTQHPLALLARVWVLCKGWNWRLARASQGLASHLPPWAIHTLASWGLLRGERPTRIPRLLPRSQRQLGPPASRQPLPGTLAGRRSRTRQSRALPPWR
T4 sequence (Q9NWZ3 whole entry): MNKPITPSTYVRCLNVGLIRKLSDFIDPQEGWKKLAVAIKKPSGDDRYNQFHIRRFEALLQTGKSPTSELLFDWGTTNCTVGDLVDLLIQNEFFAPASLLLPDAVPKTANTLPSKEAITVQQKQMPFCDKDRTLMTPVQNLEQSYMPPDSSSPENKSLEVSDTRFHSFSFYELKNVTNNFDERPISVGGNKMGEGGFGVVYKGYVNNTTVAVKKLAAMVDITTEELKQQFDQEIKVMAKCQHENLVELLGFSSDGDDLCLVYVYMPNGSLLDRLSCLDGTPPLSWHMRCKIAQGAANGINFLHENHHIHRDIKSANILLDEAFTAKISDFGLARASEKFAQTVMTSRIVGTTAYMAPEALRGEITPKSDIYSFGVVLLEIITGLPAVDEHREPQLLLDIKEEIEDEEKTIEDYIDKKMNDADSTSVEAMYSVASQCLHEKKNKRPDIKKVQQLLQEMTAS
T2 sequence (Q00532 whole entry): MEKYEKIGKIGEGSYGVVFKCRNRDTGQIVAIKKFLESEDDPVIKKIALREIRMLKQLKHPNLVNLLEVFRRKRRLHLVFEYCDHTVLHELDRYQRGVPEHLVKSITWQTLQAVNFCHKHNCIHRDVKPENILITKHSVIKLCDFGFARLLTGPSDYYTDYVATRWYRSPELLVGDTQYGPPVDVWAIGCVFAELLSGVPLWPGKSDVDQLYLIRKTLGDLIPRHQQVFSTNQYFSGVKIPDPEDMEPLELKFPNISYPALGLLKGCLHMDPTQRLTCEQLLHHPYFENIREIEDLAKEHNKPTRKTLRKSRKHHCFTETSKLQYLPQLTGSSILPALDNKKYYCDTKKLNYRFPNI
T6 sequence (P61075 whole entry): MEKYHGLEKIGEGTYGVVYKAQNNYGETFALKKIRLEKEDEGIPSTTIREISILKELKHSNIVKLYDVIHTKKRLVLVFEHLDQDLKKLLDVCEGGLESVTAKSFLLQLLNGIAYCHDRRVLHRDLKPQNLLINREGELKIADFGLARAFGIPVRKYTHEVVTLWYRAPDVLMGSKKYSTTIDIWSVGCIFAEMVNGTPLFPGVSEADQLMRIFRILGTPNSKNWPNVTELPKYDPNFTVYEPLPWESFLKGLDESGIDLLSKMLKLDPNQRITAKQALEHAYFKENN
T3 sequence (Q9BQI3 whole entry): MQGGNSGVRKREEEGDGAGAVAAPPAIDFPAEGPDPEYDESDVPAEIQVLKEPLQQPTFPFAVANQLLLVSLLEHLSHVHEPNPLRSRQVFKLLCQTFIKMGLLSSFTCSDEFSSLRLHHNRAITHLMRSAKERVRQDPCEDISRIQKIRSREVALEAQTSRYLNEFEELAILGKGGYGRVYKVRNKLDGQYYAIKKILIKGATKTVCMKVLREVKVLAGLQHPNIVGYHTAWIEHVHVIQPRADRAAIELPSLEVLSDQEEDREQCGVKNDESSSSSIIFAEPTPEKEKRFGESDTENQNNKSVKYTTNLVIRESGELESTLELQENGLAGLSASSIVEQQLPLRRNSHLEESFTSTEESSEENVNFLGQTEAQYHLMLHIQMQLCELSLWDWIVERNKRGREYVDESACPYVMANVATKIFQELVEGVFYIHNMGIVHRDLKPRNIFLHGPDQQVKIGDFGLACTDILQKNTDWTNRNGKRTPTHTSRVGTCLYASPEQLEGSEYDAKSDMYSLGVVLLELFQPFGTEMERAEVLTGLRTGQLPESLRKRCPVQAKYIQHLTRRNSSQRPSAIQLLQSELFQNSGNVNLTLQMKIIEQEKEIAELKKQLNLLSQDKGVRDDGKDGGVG

Consider `CCN1CCN(Cc2ccc(NC(=O)c3ccc(C)c(C#Cc4cccnc4)c3)cc2C(F)(F)F)CC1` [XMD15-44], for which the remaining binding at 10 µM on KinomeScan kinase panel [1] is greater than 30%; on KinomeScan kinase panel [2], greater than 30%; on KinomeScan kinase panel [3], greater than 30%; at KinomeScan kinase panel [5], 0.15%; on KinomeScan kinase panel [6] it was 89%. Also, the “score (%)” value at KinomeScan kinase panel [4] is recorded as “nb (Hits values higher than 30% were considered negative (no binding: nb))”.

For the origin of these results see publication PMC4457528, “Identification of Novel Small Molecule Inhibitors of Oncogenic RET Kinase” (PLoS ONE, 2015).
